This passage reports melting point and IC50 results from US7598237B2 (Wyeth, priority 2004, dated 2009).

The term melting point denotes the temperature, or range, at which the solid turns liquid. For orientation: IC50 means the point on the concentration scale where inhibition reaches its midpoint.

Tested on in the first data set: not given
Assay: not given
Conditions: not given
For `CC1(C)OCC(=O)Nc2ccc(-c3cc(F)cc(C#N)c3)cc21` [Compound 3, 3-(5,5-dimethyl-2-oxo-1,2,3,5-tetrahydro-4,1-benzoxazepin-7-yl)-5-fluorobenzonitrile], the melting point was 238 to 239 °C.
In the case of `Cn1c(C#N)ccc1-c1ccc2c(c1)C(C)(c1cccs1)OCC(=O)N2` (centres unmarked) [Compound 6, 1-Methyl-5-[5-methyl-2-oxo-5-(2-thienyl)-1,2,3,5-tetrahydro-4,1-benzoxazepin-7-yl]-1H-pyrrole-2-carbonitrile], the melting point was 197 to 198 °C.
On the same count and under the same terms, under `CCC1(c2cccs2)OCC(=O)Nc2ccc(-c3ccc(F)c(C#N)c3)cc21` (centres unmarked) [Example 139, 5-(5-Ethyl-2-oxo-5-thien-2-yl-1,2,3,5-tetrahydro-4,1-benzoxazepin-7-yl)-2-fluorobenzonitrile] stands 197 to 199 °C.
As to `CCC1(c2cccs2)OCC(=O)Nc2ccc(-c3sc(C#N)cc3C)cc21` (centres unmarked) [Example 140, 5-(5-Ethyl-2-oxo-5-thien-2-yl-1,2,3,5-tetrahydro-4,1-benzoxazepin-7-yl)-4-methylthiophene-2-carbonitrile], the melting point lay within 182 to 184 °C.
Still for that read-out and setting: under `CCC1(c2cccs2)OCC(=O)Nc2ccc(-c3coc(C#N)c3)cc21` (centres unmarked) [Example 141, 4-(5-Ethyl-2-oxo-5-thien-2-yl-1,2,3,5-tetrahydro-4,1-benzoxazepin-7-yl)-2-furonitrile] stands 99 to 100 °C; under `CCC1(c2cccs2)OCC(=O)Nc2ccc(-c3csc(C#N)c3)cc21` (centres unmarked) [Example 143, 4-(5-Ethyl-2-oxo-5-thien-2-yl-1,2,3,5-tetrahydro-4,1-benzoxazepin-7-yl)thiophene-2-carbonitrile], 202 to 204 °C.

A further data set deals with T1, progesterone receptor (PR) (Homo sapiens, UniProt P06401).
T1 construct: effect on alkaline phosphatase activity in T47D cells; endogenous in cells; host or cells: T47D cells
T1 sequence (P06401 1-933): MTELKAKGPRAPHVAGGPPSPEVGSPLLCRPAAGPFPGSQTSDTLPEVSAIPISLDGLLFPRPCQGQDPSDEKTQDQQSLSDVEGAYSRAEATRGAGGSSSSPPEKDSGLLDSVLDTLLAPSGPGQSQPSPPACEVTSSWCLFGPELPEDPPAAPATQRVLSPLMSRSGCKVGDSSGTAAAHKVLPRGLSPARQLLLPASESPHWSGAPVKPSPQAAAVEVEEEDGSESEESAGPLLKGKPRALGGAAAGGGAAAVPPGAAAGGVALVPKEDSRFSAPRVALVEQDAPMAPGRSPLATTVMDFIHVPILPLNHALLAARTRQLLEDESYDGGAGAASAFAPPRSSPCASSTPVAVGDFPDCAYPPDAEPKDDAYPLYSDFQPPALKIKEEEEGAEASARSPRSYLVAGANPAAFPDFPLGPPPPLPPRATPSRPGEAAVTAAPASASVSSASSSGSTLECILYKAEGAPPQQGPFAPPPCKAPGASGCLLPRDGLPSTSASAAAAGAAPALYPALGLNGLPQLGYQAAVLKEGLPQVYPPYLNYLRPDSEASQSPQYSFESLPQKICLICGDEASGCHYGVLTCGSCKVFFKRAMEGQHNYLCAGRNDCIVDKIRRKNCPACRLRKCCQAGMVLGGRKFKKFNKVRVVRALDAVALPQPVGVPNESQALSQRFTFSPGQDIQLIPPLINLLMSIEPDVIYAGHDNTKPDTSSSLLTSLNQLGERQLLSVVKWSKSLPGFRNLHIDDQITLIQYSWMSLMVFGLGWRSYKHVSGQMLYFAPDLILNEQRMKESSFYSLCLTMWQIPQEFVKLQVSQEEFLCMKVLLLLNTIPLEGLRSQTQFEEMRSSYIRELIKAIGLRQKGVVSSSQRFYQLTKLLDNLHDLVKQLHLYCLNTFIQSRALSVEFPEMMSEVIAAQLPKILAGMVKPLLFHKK
In words: T47D cell alkaline phosphatase assay. In kind it is cell-based. As to conditions: T47D cells; antagonist mode, in the presence of 1 nM progesterone; first TABLE 2; read-out: Alk. Phos. IC50. The procedure: (4) T47D Cell Alkaline Phosphatase Assay
To identify progestins or antiprogestins by determining a compound's effect on alkaline phosphatase activity in T47D cells.
DMEM:F12 (1:1) (GIBCO, BRL) supplemented with 5% (v/v) charcoal stripped fetal bovine serum (not heat-inactivated), 100 U/ml penicillin, […], and 2 mM GlutaMax (GIBCO, BRL).
I. 0.1 M Tris-HCl, pH 9.8, containing 0.2% Triton X-100
II. 0.1 M Tris-HCl, pH 9.8 containing 4 mM p-nitrophenyl phosphate (Sigma).
Frozen T47D cells were thawed in a 37° C. water bath and diluted to 280,000 cells/ml in culture medium. To each well in a 96-well plate (Falcon, Becton Dickinson Labware), 180 μl of diluted cell suspension was added. Twenty μl of reference or test compounds diluted in the culture medium was then added to each well. […] The cells were incubated at 37° C. in a 5% CO2/humidified atmosphere for 24 hr.
Note: For high throughput screening, one concentration of each compound was tested at 0.3 mg/ml. Based on an average molecular weight of 300 g/mol for the compounds in the library, the concentration was approximately 1 mM. […] Alkaline Phosphatase Enzyme Assay: […]
For reference and test compounds, a dose response curve was generated for dose (X-axis) vs. the rate of enzyme reaction (slope) (Y-axis). […] EC50 or IC50 values were calculated from the retransformed values. […]
Take `Cn1c(C#N)ccc1-c1ccc2c(c1)C(c1cccs1)(c1cccs1)OCC(=O)N2` [Compound 14, 1-Methyl-5-(2-oxo-5,5-dithien-2-yl-1,2,3,5-tetrahydro-4,1-benzoxazepin-7-yl)-1H-pyrrole-2-carbonitrile]: the IC50 is 0.0113 µM.
The same measure, in the same setting: under `CCC1(c2cccs2)OCC(=O)Nc2ccc(-c3ccc(C#N)n3C)cc21` (centres unmarked) [Compound 19, 5-(5-Ethyl-2-oxo-5-thien-2-yl-1,2,3,5-tetrahydro-4,1-benzoxazepin-7-yl)-1-methyl-1H-pyrrole-2-carbonitrile] stands 0.0146 µM.
